# Experimental data published in patent US11839679B2, “Gamma-diketones for treatment and prevention of aging skin and wrinkles” (BioSplice Therapeutics, Inc., priority 2014, dated 2023).
# System: fine lines, wrinkles in the outer canthus of the eyes (crow's feet area)
# Test: Roughness reduction [SEr] via Visioscan, Example 1
# Assay type: in vivo, human
# Set-up: Roughness [SEr] via Visioscan / Roughness [SEr] via Visioscan, Mean: scale not given here
# Procedure: Three groups of women were recruited to evaluate and compare the efficacy of three anti-aging test products (targeting the periorbital eye area) intended to reduce the appearance of fine lines, wrinkles in the outer canthus of the eyes (crow's feet area) over a 12 week period. Wrinkle assessment was conducted instrumentally using a Visioscan image analysis system. Effectiveness of the test product was evaluated using panelist self-assessment via questionnaire responses comprised of 3-4 questions (Q1, Q2, Q3 & Q4). Each stage in the progression of treatments was photographically documented using a High Resolution Scientifically Matched Photography technique. Image analysis was utilized to quantify changes in fine lines and crow's feet condition observed in the Scientifically Matched Photographs.
# Subject Selection: • Number: Six subjects (two per group) to complete the study. • Sex: Females • Race: Caucasian/Asian/Hispanic • Age Range: 40 through 60 years old
# Test samples: • Topical 0.15% of Compound #222 in Oil (a 50/50 mixture of • Propylene Glycol Dicaprylate/Dicaprate and Caprylic/Capric Triglyceride) (Cohort 1) • Topical 0.15% of Compound #222 in PEG400 (Cohort 2) • Topical 0.05% of Compound #222 in PEG400 (Cohort 3)
# Prior to baseline measurements being taken, areas of involvement were marked on the facial surface using a standard template, to ensure that instruments were repositioned in the same location at each visit. The biophysical measurements (Surface Evaluation of Living Skin via Visioscan) were conducted by a trained technician. Pre-treatment High Resolution Scientifically Matched Photographs were taken.
# […] After acclimating to ambient conditions, High Resolution Scientifically Matched Photographs were be taken and biophysical measurements (Surface Evaluation of Living Skin via Visioscan) were repeated using the standard template to identify test sites on the face. In addition (during the acclimation period) all participants were be asked to fill out a self-assessment questionnaire.
# Surface Evaluation of Living Skin Visioscan: The Visioscan (Courage and Khazaka) took a direct image of the living skin using a measuring head containing a CCD-camera and two metal halogen lamps positioned opposite each other in order to ensure even illumination of the measuring field on the skin (Skin Pharmacol Appl Skin Physiol (1999), 12(1-2), 1-11 and Cosmetic & Toiletries magazine (2009), 124(6), 51-54). The grey level distribution of the pixels in the image correspond to different phenomena (white pixels represent desquamation on the skin, dark pixels represent lines and wrinkles). The software with the Visioscan automatically calculates skin smoothness, skin roughness, scaliness and wrinkle parameters. […]
# The source data was Visioscan and PhotoGrammetrix Image Analysis readings along with subjective assessments, which were totaled and reported as average scores. Photographs were placed side by side as to compare the photographs of before and after application of the test product in the eye area. […] The data obtained via Visioscan and from PhotoGrammetrix Image Analysis was quoted as % differences from baseline at each of the previously described time points. A paired t-test analysis was conducted in order to compare the results of post test product application measurements to baseline measurements where applicable. Statistical significance was established if p≤(α=0.05) was calculated.
compound,measurement,setting,value
O=C(CCC(=O)c1ccc2c(c1)OCO2)c1ccccc1 [#222],"Roughness [SEr] via Visioscan, Mean","Day 7, Topical 0.05% in PEG (Cohort 3)",1.64
same,"Roughness [SEr] via Visioscan, Mean","Day 7, Topical 0.15% in Oil (Cohort 1)",1.97
same,"Roughness [SEr] via Visioscan, Mean","Day 7, Topical 0.15% in PEG (Cohort 2)",1.67
same,"Roughness [SEr] via Visioscan, % Difference of Mean","Day 7 vs Baseline, Topical 0.05% in PEG (Cohort 3)",−20.24%
same,"Roughness [SEr] via Visioscan, % Difference of Mean","Day 7 vs Baseline, Topical 0.15% in Oil (Cohort 1)",−10.36%
same,"Roughness [SEr] via Visioscan, % Difference of Mean","Day 7 vs Baseline, Topical 0.15% in PEG (Cohort 2)",−10.19%
same,"Roughness [SEr] via Visioscan, Mean","Day 14, Topical 0.05% in PEG (Cohort 3)",1.51
same,"Roughness [SEr] via Visioscan, Mean","Day 14, Topical 0.15% in Oil (Cohort 1)",1.77
same,"Roughness [SEr] via Visioscan, Mean","Day 14, Topical 0.15% in PEG (Cohort 2)",1.62
same,"Roughness [SEr] via Visioscan, % Difference of Mean","Day 14 vs Baseline, Topical 0.05% in PEG (Cohort 3)",−26.59%
same,"Roughness [SEr] via Visioscan, % Difference of Mean","Day 14 vs Baseline, Topical 0.15% in Oil (Cohort 1)",−19.36%
same,"Roughness [SEr] via Visioscan, % Difference of Mean","Day 14 vs Baseline, Topical 0.15% in PEG (Cohort 2)",−12.53%
same,Roughness [SEr] via Visioscan,"Subject #1, Day 7, Topical 0.15% in Oil (Cohort 1)",2.46
same,"Roughness [SEr] via Visioscan, Individual % Difference","Subject #1, Day 7 vs Baseline, Topical 0.15% in Oil (Cohort 1)",−1.60%
same,Roughness [SEr] via Visioscan,"Subject #1, Day 14, Topical 0.15% in Oil (Cohort 1)",2.25
same,"Roughness [SEr] via Visioscan, Individual % Difference","Subject #1, Day 14 vs Baseline, Topical 0.15% in Oil (Cohort 1)",−9.82%
same,Roughness [SEr] via Visioscan,"Subject #2, Day 7, Topical 0.15% in Oil (Cohort 1)",1.48
same,"Roughness [SEr] via Visioscan, Individual % Difference","Subject #2, Day 7 vs Baseline, Topical 0.15% in Oil (Cohort 1)",−21.90%
same,Roughness [SEr] via Visioscan,"Subject #2, Day 14, Topical 0.15% in Oil (Cohort 1)",1.29
same,"Roughness [SEr] via Visioscan, Individual % Difference","Subject #2, Day 14 vs Baseline, Topical 0.15% in Oil (Cohort 1)",−31.93%
same,Roughness [SEr] via Visioscan,"Subject #3, Day 7, Topical 0.15% in PEG (Cohort 2)",1.95
same,"Roughness [SEr] via Visioscan, Individual % Difference","Subject #3, Day 7 vs Baseline, Topical 0.15% in PEG (Cohort 2)",−11.79%
same,Roughness [SEr] via Visioscan,"Subject #3, Day 14, Topical 0.15% in PEG (Cohort 2)",1.90
same,"Roughness [SEr] via Visioscan, Individual % Difference","Subject #3, Day 14 vs Baseline, Topical 0.15% in PEG (Cohort 2)",−13.83%
same,Roughness [SEr] via Visioscan,"Subject #4, Day 7, Topical 0.15% in PEG (Cohort 2)",1.39
same,"Roughness [SEr] via Visioscan, Individual % Difference","Subject #4, Day 7 vs Baseline, Topical 0.15% in PEG (Cohort 2)",−7.84%
same,Roughness [SEr] via Visioscan,"Subject #4, Day 14, Topical 0.15% in PEG (Cohort 2)",1.35
same,"Roughness [SEr] via Visioscan, Individual % Difference","Subject #4, Day 14 vs Baseline, Topical 0.15% in PEG (Cohort 2)",−10.63%
same,Roughness [SEr] via Visioscan,"Subject #5, Day 7, Topical 0.05% in PEG (Cohort 3)",1.83
same,"Roughness [SEr] via Visioscan, Individual % Difference","Subject #5, Day 7 vs Baseline, Topical 0.05% in PEG (Cohort 3)",−29.07%
same,Roughness [SEr] via Visioscan,"Subject #5, Day 14, Topical 0.05% in PEG (Cohort 3)",1.77
same,"Roughness [SEr] via Visioscan, Individual % Difference","Subject #5, Day 14 vs Baseline, Topical 0.05% in PEG (Cohort 3)",−31.40%
same,Roughness [SEr] via Visioscan,"Subject #6, Day 7, Topical 0.05% in PEG (Cohort 3)",1.44
same,"Roughness [SEr] via Visioscan, Individual % Difference","Subject #6, Day 7 vs Baseline, Topical 0.05% in PEG (Cohort 3)",−5.26%
same,Roughness [SEr] via Visioscan,"Subject #6, Day 14, Topical 0.05% in PEG (Cohort 3)",1.24
same,"Roughness [SEr] via Visioscan, Individual % Difference","Subject #6, Day 14 vs Baseline, Topical 0.05% in PEG (Cohort 3)",−18.42%
